Usually IC50 stands for the midpoint of a concentration-inhibition curve. Usually inhibition stands for the percentage by which the read-out fell short of the control.

Among the data in ChEMBL document CHEMBL5096233, “Phenotypic Discovery of Triazolo[1,5-c]quinazolines as a First-In-Class Bone Morphogenetic Protein Amplifier Chemotype” (J Med Chem, 2022) are IC50, Activity and inhibition values, retold here.

In experiment [1] the target is Casein kinase I isoform delta (Homo sapiens, UniProt P48730). Kind of experiment: Inhibition of CK1delta (unknown origin).
Chain of Casein kinase I isoform delta (P48730 whole entry, canonical isoform): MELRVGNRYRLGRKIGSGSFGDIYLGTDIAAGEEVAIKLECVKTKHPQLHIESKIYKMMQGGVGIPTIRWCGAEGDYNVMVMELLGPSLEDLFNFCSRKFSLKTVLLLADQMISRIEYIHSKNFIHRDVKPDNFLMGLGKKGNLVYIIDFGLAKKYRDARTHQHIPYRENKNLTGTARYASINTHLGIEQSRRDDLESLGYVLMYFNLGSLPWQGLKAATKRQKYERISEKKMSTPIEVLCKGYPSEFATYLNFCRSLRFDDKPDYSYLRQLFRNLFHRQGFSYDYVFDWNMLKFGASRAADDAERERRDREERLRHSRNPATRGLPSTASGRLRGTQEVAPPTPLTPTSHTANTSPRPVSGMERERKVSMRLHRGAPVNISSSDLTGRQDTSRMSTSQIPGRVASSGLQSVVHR
In experiment [2] the target is Casein kinase I isoform epsilon (Homo sapiens, UniProt P49674). Nature of the experiment: Inhibition of CK1epsilon (unknown origin).
Chain of Casein kinase I isoform epsilon (P49674 whole entry, canonical isoform): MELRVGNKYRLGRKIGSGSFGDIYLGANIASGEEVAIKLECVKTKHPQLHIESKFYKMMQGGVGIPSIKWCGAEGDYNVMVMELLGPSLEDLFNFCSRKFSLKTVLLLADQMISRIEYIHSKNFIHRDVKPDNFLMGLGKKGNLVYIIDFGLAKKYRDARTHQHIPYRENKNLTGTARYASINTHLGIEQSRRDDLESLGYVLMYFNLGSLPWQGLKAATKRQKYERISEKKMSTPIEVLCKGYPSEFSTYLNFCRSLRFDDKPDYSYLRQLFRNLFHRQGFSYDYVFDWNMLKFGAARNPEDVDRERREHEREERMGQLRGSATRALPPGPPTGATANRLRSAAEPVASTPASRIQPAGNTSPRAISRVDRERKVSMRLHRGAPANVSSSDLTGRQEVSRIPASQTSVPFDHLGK
In experiment [3] the target is Casein kinase I isoform alpha (Homo sapiens, UniProt P48729). Kind of experiment: Inhibition of CK1alpha (unknown origin).
The subject of experiment [4] is C2C12. Kind of experiment: Induction of osteogenic differentiation in mouse C2C12 cells assessed as ALP activity at 5 uM preincubated with compound in the presence of BMP-4 for 72 hrs followed by substrate addition and measured after 1 hrs by luminescence based assay relative to control. The experiment is classed as functional. The following applies: time 73 hrs.

The target in experiment [5] is T1, Phosphatidylinositol 4,5-bisphosphate 3-kinase catalytic subunit gamma isoform (Homo sapiens, UniProt P48736). Kind of experiment: Inhibition of PI3Kgamma (unknown origin) at 10 uM relative to control.
Target sequence in this assay (P48736 whole entry, looked up, canonical isoform): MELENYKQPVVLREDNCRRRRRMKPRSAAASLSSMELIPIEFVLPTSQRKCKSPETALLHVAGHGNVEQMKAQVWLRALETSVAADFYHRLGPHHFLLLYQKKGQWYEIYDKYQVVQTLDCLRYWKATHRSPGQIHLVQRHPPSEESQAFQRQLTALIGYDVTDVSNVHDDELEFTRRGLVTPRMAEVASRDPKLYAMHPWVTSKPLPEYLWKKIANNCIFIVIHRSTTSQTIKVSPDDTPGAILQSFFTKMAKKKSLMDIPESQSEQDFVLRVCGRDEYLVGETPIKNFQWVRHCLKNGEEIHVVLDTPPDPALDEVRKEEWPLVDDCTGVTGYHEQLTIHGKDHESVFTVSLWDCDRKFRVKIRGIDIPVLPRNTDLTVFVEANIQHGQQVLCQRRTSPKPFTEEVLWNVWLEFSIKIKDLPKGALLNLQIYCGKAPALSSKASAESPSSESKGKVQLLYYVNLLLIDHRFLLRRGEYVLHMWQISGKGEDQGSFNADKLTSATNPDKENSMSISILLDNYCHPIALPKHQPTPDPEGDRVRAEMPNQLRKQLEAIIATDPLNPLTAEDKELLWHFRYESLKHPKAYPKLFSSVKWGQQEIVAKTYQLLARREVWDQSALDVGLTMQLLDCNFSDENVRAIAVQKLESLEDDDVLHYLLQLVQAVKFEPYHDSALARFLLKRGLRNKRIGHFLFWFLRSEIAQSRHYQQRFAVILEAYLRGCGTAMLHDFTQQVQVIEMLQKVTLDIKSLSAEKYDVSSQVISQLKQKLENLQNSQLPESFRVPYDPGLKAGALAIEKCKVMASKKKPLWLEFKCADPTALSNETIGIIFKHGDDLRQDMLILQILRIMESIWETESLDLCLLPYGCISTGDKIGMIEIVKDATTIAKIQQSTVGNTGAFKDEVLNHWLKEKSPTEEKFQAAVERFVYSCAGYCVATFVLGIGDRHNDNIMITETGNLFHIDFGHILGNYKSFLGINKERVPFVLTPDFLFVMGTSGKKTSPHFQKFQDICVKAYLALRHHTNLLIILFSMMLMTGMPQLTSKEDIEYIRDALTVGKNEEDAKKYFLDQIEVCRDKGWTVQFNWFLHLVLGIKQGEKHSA
The target in experiment [6] is T2, Phosphatidylinositol 4,5-bisphosphate 3-kinase catalytic subunit alpha isoform (Homo sapiens, UniProt P42336). Nature of the experiment: Inhibition of PI3Kalpha (unknown origin) at 10 uM relative to control.
T2 sequence (P42336 whole entry, canonical isoform): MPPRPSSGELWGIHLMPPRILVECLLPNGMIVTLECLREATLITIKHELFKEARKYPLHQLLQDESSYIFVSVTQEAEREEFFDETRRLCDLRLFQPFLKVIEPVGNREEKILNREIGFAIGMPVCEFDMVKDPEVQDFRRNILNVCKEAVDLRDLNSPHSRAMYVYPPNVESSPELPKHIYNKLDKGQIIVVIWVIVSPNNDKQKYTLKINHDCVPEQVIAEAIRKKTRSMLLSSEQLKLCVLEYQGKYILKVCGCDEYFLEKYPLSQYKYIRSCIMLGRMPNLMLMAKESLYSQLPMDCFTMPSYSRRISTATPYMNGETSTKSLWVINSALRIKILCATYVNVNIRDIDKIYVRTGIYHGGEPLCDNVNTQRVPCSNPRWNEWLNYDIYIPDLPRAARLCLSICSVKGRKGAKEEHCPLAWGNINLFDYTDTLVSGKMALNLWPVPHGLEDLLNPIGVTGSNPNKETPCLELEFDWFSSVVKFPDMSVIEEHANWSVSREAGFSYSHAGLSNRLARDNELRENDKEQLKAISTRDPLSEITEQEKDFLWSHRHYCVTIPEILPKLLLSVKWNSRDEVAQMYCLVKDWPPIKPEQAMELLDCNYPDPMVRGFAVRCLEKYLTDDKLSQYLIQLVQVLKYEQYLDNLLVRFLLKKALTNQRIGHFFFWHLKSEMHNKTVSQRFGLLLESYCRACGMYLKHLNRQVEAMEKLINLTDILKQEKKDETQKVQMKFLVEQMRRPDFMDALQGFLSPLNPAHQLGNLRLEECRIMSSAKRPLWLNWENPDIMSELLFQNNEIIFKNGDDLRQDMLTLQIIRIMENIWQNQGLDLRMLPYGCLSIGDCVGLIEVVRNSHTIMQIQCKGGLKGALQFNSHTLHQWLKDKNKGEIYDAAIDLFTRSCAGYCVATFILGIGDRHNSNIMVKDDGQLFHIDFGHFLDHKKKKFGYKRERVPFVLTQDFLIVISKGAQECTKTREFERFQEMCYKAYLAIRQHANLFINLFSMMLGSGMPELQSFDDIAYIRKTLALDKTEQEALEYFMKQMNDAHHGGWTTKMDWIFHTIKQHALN
Experiment [7] deals with T3, Phosphatidylinositol 4,5-bisphosphate 3-kinase catalytic subunit delta isoform (Homo sapiens) (UniProt O00329).
T3 sequence (whole entry): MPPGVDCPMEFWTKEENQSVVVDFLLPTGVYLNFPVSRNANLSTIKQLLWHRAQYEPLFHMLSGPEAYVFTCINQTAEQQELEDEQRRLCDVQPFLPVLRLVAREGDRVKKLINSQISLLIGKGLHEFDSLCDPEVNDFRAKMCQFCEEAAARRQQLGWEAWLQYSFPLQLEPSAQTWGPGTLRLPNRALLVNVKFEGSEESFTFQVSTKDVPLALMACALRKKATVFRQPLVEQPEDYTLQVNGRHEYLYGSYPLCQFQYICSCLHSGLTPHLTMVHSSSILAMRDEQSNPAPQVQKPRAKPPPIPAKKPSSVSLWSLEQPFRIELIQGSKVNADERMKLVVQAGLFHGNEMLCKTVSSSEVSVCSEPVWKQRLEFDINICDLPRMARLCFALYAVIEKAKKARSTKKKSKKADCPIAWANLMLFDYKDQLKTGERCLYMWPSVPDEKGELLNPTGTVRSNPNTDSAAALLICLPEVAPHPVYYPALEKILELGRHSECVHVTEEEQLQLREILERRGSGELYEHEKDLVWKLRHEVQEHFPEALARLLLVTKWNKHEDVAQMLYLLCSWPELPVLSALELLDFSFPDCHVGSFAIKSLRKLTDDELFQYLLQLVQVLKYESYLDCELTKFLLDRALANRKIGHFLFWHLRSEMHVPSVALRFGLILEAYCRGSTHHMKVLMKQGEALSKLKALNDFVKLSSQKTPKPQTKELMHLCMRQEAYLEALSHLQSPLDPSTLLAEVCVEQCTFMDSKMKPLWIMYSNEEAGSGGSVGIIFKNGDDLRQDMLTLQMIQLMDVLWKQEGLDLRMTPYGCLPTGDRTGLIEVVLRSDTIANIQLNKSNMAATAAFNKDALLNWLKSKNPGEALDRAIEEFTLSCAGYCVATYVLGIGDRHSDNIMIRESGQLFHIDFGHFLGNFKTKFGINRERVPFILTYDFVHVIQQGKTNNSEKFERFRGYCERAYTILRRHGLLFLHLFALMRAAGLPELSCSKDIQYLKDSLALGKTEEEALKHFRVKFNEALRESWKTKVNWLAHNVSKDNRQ
Kind of experiment: Inhibition of PI3Kdelta (unknown origin) at 10 uM relative to control.

Experiment [8] concerns the target T4, Phosphatidylinositol 4,5-bisphosphate 3-kinase catalytic subunit beta isoform (Homo sapiens, UniProt P42338). Nature of the experiment: Inhibition of PI3Kbeta (unknown origin) at 10 uM relative to control.
Target sequence in this assay (P42338 whole entry, looked up, canonical isoform): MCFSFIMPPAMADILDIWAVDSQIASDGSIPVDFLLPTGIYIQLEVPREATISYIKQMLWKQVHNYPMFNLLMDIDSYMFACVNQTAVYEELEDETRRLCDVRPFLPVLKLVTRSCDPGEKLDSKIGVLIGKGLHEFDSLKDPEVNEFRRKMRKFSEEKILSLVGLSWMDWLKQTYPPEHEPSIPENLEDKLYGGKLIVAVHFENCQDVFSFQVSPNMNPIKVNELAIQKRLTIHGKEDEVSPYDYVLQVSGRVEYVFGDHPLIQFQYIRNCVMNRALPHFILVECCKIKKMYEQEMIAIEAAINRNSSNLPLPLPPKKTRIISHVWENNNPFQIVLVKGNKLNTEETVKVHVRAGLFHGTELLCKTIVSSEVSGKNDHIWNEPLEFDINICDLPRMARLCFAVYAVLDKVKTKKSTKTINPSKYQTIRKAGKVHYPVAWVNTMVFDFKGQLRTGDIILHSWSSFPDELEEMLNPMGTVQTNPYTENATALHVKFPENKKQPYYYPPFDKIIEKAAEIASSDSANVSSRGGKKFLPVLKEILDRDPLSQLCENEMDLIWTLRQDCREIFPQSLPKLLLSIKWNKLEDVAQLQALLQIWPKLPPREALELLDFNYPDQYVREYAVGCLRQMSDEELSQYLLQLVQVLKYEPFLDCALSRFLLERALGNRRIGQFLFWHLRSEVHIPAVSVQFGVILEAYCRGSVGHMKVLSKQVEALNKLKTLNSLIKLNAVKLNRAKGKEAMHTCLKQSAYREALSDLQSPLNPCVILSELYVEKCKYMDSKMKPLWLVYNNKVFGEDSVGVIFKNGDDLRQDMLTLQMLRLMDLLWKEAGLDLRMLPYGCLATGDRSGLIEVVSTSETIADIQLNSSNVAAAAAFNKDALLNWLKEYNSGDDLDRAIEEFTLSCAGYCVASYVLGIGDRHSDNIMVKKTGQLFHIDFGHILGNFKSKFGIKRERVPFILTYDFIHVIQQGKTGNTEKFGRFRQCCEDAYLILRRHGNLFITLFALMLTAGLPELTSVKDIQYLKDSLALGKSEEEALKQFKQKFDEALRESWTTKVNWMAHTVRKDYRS
Experiment [9] has as its target Phosphatidylinositol 3-kinase catalytic subunit type 3 (Homo sapiens) (UniProt Q8NEB9). Nature of the experiment: Inhibition of VPS34 (unknown origin) at 10 uM relative to control.
In another experiment the test system is HEK293T. Nature of the experiment: Activation of BMP signaling in HEK293T cells expressing BRE-Vent2 luciferase reporter gene assessed as BRE activation by measuring increase in luciferase activity measured after 22 hrs in the presence of BMP-4 by dual-luciferase assay. It is filed as cell-based. The following applies: Homo sapiens, filed as activator. Background: Reporter assays use an easily measured gene product as a stand-in for the process of interest.

A short description of experiment [10]: Inhibition of DMH-1 induced cardiogenesis in mouse embryonic stem cells transfected with Myh6-GFP pretreated with compound followed by DMH-1 stimulation for 24 hrs in the presence of BMP-4 with replacement of media on day 7 and 9 and measured after 11 days by DAPI-staining based assay. To be noted: embryonic stem cell.
In experiment [11] the target is DNA-dependent protein kinase catalytic subunit (Homo sapiens, UniProt P78527). Nature of the experiment: Inhibition of DNA-PK (unknown origin).
The target of experiment [12] is T1, Phosphatidylinositol 4,5-bisphosphate 3-kinase catalytic subunit gamma isoform. Kind of experiment: Inhibition of PI3Kgamma (unknown origin).
Target sequence in this assay (P48736 whole entry, canonical isoform): as the sequence (P48736 whole entry, looked up, canonical isoform) above
Experiment [13] has as its target T2, Phosphatidylinositol 4,5-bisphosphate 3-kinase catalytic subunit alpha isoform. Kind of experiment: Inhibition of PI3Kalpha (unknown origin).
Experiment [14] deals with T5, Phosphatidylinositol 4,5-bisphosphate 3-kinase catalytic subunit delta isoform (Homo sapiens, UniProt O00329).
T5 sequence (O00329 whole entry): T3 sequence (whole entry)
Nature of the experiment: Inhibition of PI3Kdelta (unknown origin).

Experiment [15] addresses T4, Phosphatidylinositol 4,5-bisphosphate 3-kinase catalytic subunit beta isoform. Kind of experiment: Inhibition of PI3Kbeta (unknown origin).
Target sequence in this assay (P42338 whole entry, canonical isoform): as the sequence (P42338 whole entry, looked up, canonical isoform) above
In experiment [16] the test system is C2C12. Nature of the experiment: Induction of osteogenic differentiation in mouse C2C12 cells assessed as ALP activity preincubated with compound in the presence of BMP-4 for 72 hrs followed by substrate addition and measured after 1 hrs by luminescence based assay. The following applies: time 73.0 hrs. It is filed as functional, cell-based.
Experiment [17] deals with C2C12. Kind of experiment: Induction of osteogenic differentiation in mouse C2C12 cells assessed as ALP activity preincubated with compound in the presence of BMP-4 for 72 hrs followed by substrate addition and measured after 1 hrs in the presence of PIK93 by luminescence based assay. The experiment is classed as functional, cell-based. The following applies: time 73.0 hrs, DDE = dose-dependent effect.

For experiment [18], the system named is C2C12. Kind of experiment: Induction of osteogenic differentiation in mouse C2C12 cells assessed as ALP activity preincubated with compound in the presence of BMP-4 for 72 hrs followed by substrate addition and measured after 1 hrs in the presence of BYL719 by luminescence based assay. The experiment is classed as functional, cell-based. The following applies: time 73.0 hrs, DDE = dose-dependent effect.

Activity calls are given as the source filed them. The rule behind the calls is not given here.

Chain of Phosphatidylinositol 3-kinase catalytic subunit type 3 (Homo sapiens) (Q8NEB9 whole entry): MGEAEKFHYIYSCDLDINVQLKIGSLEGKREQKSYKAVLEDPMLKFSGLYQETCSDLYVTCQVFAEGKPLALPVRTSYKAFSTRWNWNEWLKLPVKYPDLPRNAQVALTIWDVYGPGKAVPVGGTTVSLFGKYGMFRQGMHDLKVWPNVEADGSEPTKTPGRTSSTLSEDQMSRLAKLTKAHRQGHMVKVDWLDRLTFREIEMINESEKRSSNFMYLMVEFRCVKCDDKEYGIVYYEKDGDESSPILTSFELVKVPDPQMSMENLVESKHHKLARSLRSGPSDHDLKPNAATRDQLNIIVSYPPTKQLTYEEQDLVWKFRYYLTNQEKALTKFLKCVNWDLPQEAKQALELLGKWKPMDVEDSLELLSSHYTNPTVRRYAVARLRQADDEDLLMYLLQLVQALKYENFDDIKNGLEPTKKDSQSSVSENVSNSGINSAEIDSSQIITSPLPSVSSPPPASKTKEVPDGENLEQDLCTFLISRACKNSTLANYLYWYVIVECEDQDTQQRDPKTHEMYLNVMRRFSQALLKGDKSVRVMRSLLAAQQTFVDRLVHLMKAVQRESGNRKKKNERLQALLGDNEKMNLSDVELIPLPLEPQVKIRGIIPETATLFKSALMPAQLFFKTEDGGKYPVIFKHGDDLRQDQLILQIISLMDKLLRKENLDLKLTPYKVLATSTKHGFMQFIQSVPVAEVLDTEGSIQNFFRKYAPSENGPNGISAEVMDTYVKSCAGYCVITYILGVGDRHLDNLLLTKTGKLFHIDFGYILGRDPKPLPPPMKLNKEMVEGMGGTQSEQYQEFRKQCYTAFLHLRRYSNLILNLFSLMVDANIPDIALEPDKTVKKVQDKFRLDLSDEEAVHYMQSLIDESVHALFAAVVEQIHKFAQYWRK

For the molecule `Nc1nc2ccc(O)cc2c2nc(-c3ccco3)nn12`, the IC50 in [1] was 3640 nM; in experiment [2] it was greater than 10000 nM; in experiment [3], 6180 nM. Besides, the Activity in the experiment with C2C12 [4] came out at 184%. For the same molecule, the inhibition in [5] was found to be 79%; in experiment [6] it was 72%; in experiment [7], 11%; in experiment [8], 0%; in experiment [9], 29%. The result with HEK293T was Active.
Regarding `Nc1nc2ccc(Cl)cc2c2nc(-c3ccco3)nn12` [CGS-15943], the IC50 is 500 nM in experiment [10]; 240 nM in experiment [1]; 490 nM in experiment [2]; 820 nM in [3]; 140 nM in [11]; 110 nM in [12]. Further, the results for the IC50 in [13], in experiment [14] and in [15] were 1280 nM, 970 nM and 8.48 µM, respectively. Further, the Activity in the experiment with C2C12 [4] turned out to be 290%. For the same molecule, the inhibition in [5] was determined as 96%; in experiment [6] it was 86%; in [7] it was 34%; in experiment [8] it was 39%; in experiment [9], 5%. For the same molecule, the result in the experiment on C2C12 [16] and in the experiment on HEK293T was Active.
Regarding `Nc1nc2ccc(Cl)cc2c2nc(-c3ncco3)nn12`, the IC50 came out at 430 nM in experiment [1], 2070 nM in experiment [2] and 2920 nM in [3]. The Activity in the experiment with C2C12 [4] worked out at 166%. The inhibition was determined as 91% in experiment [5]; 82% in [6]; 79% in experiment [7]; 29% in [8]; 10% in experiment [9]. Also, the outcome in the experiment with C2C12 [16] and in the experiment with HEK293T was Active.
In the case of `Nc1ccc2nc(N)n3nc(-c4ccco4)nc3c2c1`, the result in the experiment with HEK293T was Active.
Take `Nc1nc2ccc(Br)cc2c2nc(-c3ccco3)nn12`: the figures for the IC50 in experiment [1], in experiment [2] and in experiment [3] were 120 nM, 380 nM and 220 nM, respectively. The Activity in the experiment on C2C12 [4] is recorded as 554%. The inhibition in [5] turned out to be 93%; in experiment [6] it was 80%; in [7] it was 75%; in experiment [8], 27%; in experiment [9], 6%. Moreover, the outcome in the experiment on C2C12 [16] and with HEK293T was Active.
On to `Nc1nc2ccc(F)cc2c2nc(-c3ccco3)nn12`, for which the outcome with C2C12 [16] and with HEK293T was Active.
With `Nc1nc2ccccc2c2nc(-c3ccco3)nn12`, the outcome in the experiment on C2C12 [16] and in the experiment with HEK293T was Active.
As to `Cc1nc(NC(=O)N2CCC[C@H]2C(N)=O)sc1-c1ccnc(C(C)(C)C(F)(F)F)c1`, the outcome with C2C12 [16] was Active.
For the molecule `Fc1cccc(-n2cnc3c(NCc4nc5c(F)c(F)ccc5[nH]4)nc(N4CCOCC4)nc32)c1`, the Activity result in the experiment with C2C12 [17] and with C2C12 [18] was “Dde” each time.
In the case of `CC(=O)/N=c1/[nH]c(C)c(-c2ccc(Cl)c(S(=O)(=O)NCCO)c2)s1`, in the experiment on C2C12 [16], the outcome was Active.
